Reference: US5840716A, “Phosphonate nucleotide compounds” (priority 1996, dated 1998)
Read-outs that look alike come from different tables or passages of the source.

Experiments:
Hepatitis B virus (HBV) [1] = test: HBV growth inhibition: inhibition of cytoplasmic HBV-DNA synthesis in HB611 cells (Southern blotting); format: cell-based
Procedure: Inhibitory activity against the growth of Hepatitis B virus (HBV)
(§1) HBV growth inhibitory activities of the compounds of the present invention were measured by a conventional method (K. Ueda, et al., Virology, 169, pp.213-216, 1989). HB611 cells (2×10^4, recombinant human hepatocellular carcinoma cells producing HBV) were cultured in Dulbecco ME medium containing 10% fetal bovine serum, streptomycin (100 μg/ml), penicillin (100 IU/ml), and Geneteicin (trade name, the antibiotic manufactured by Life Technologies, Co., Ltd., 0.2 mg/ml) at 37° C. The medium was changed with fresh medium on the second day and fifth day of the culture, and then the medium was changed with a medium containing a test compound at a final concentration of […] after 8, 11, and 14 days of the culture. Total cellular DNAs were collected on the 17th day of the culture. Amounts of the HBV-DNAs in the cells were measured by the Southern blotting method, and concentrations achieving 50% inhibition of cytoplasmic HBV-DNA synthesis were determined. concentrations of compounds required for 50% extinction of HB611 cells were also determined.

[2] = Cytotoxicity: 50% extinction of HB611 cells; format: cell-based; conditions: human, read-out: 50% cytotoxic concentration against HB611 cells
Procedure: as §1

Hepatitis B virus (HBV) [3] = test: HBV growth inhibitory activity of mouse serum after oral administration (HB611 cells); format: cell-based; conditions: serum 5% (V/V) in HB611 cell medium
Procedure: HBV growth inhibitory activity of mouse serum after oral administration
Groups of mice each consisting of three mice were administered orally with a test compound at a single dose of 1 g/kg or 0.3 g/kg. Blood was collected 30 minutes after the administration, and serum was prepared. HB611 cells (2×10^4, recombinant human hepatocellular carcinoma cells producing HBV) were cultured in Dulbecco ME medium containing 10% fetal bovine serum, streptomycin (100 μg/ml), penicillin (100 IU/ml), and Geneteicin (trade name, the antibiotic manufactured by Life Technologies, Co., Ltd., 0.2 mg/ml) at 37° C. The medium was changed with fresh medium on the second day and fifth day of the culture, and then the medium was changed with a medium containing a test serum at a final concentration of 5% (V/V) after 8, 11, and 14 days of the culture. Total cellular DNAs were collected on the 17th day of the culture. Amounts of the HBV-DNAs in the cells were measured by the Southern blotting method, and rates of inhibition of cytoplasmic HBV-DNA synthesis were determined. As a reference, a similar test was carried out using PMEA.

[4] = system: herpes simplex type 2 virus (HSV-2); conditions: literature; cited from earlier work
[5] = system: herpes simplex type 1 virus (HSV-1); conditions: literature; cited from earlier work
[6] = system: human hepatitis B virus (HBV); conditions: literature; cited from earlier work
[7] = system: human immunodeficiency virus (HIV); conditions: literature; cited from earlier work
[8] = HB611 cells, compound in medium after 8, 11 and 14 days, DNA collected on 17th day, read-out: 50% inhibitory concentration against HBV-DNA synthesis
[9] = mouse serum 30 minutes after single oral dose of 0.3 g/kg

## COc1cccc(Sc2nc(N)nc3c2ncn3CCOCP(=O)(OCC(F)(F)F)OCC(F)(F)F)c1 [Compound No. 3, 2-amino-9-[2-[bis(2,2,2-trifluoroethyl)-phosphonylmethoxy]ethyl]-6-m-methoxyphenylthiopurine]
Hepatitis B virus (HBV) [1]; [8]
  IC50: 0.04 µM
[2]
  CC50: > 1000 µM

## Cc1ccc(Sc2nc(N)nc3c2ncn3CCOCP(=O)(OCC(F)(F)F)OCC(F)(F)F)cc1 [Reference 2, 9-[2-[bis(2,2,2-trifluoroethyl)phosphonylmethoxy]ethyl]-2-amino-6-p-toluylthiopurine]
Hepatitis B virus (HBV) [1]; [8]
  IC50: 0.06 µM
[2]
  CC50: 108 µM

## Nc1ncnc2c1ncn2CCOCP(=O)(O)O [PMEA, 9-(2-phosphonylmethoxy) ethyladenine]
Hepatitis B virus (HBV) [3]; mouse serum 30 minutes after single oral dose of 1.0 g/kg
  Inhibitory rate against HBV-DNA synthesis: 35.5%
[4]
  reported as being effective against HSV-2: effective
[5]
  reported as being effective against HSV-1: effective
[6]
  reported as being effective against HBV: effective
[7]
  reported as being effective against HIV: effective

## COc1ccc(Sc2nc(N)nc3c2ncn3CCOCP(=O)(OCC(F)(F)F)OCC(F)(F)F)cc1 [Compound No. 4, 2-amino-9-[2-[bis(2,2,2-trifluoroethyl)-phosphonylmethoxy]ethyl]-6-p-methoxyphenylthiopurine]
Hepatitis B virus (HBV) [3]; [9]
  Inhibitory rate against HBV-DNA synthesis: 95.2%
Hepatitis B virus (HBV) [1]; [8]
  IC50: 0.05 µM
[2]
  CC50: > 1000 µM

## Nc1nc(N)c2ncn(CCOCP(=O)(O)O)c2n1 [PMDAP, 9-(2-phosphonylmethoxy)ethyl-2,6-diaminopurine]
[4]
  reported as being effective against HSV-2: effective
[5]
  reported as being effective against HSV-1: effective
[6]
  reported as being effective against HBV: effective
[7]
  reported as being effective against HIV: effective

## Nc1nc(Sc2ccccc2)c2ncn(CCOCP(=O)(OCC(F)(F)F)OCC(F)(F)F)c2n1 [Compound No. 1, 2-amino-9-[2-[bis(2,2,2-trifluoroethyl)-phosphonylmethoxy]ethyl]-6-phenylthiopurine]
Hepatitis B virus (HBV) [3]; [9]
  Inhibitory rate against HBV-DNA synthesis: 60.7%
Hepatitis B virus (HBV) [1]; [8]
  IC50: 0.01 µM
[2]
  CC50: > 1000 µM

## CC(C)(C)C(=O)OCOP(=O)(COCCn1cnc2c(N)ncnc21)OCOC(=O)C(C)(C)C [Reference 1, dipivaloyloxymethyl ester of PMEA]
Hepatitis B virus (HBV) [1]; HB611, read-out: 50% inhibitory concentration against HBV-DNA synthesis
  IC50: 18.8 µM
[2]
  CC50: 11 µM

## COc1ccccc1Sc1nc(N)nc2c1ncn2CCOCP(=O)(OCC(F)(F)F)OCC(F)(F)F [Compound No. 2, 2-amino-9-[2-[bis(2,2,2-trifluoroethyl)-phosphonylmethoxy]ethyl]-6-o-methoxyphenylthiopurine]
Hepatitis B virus (HBV) [1]; [8]
  IC50: 0.08 µM
[2]
  CC50: > 1000 µM
